From patent US20070154449A1, “TIGHT JUNCTION MODULATING PEPTIDES FOR ENHANCED MUCOSAL DELIVERY OF THERAPEUTIC COMPOUNDS” (Nastech Pharmaceutical Company Inc., priority 2005, published 2007)

Experiments:
[1] = system: human-derived tracheal/bronchial epithelial cells (EpiAirway™ Tissue model system); experiment: FITC-Dextran (FD3) permeation assay, EpiAirway tissue model; type: cell-based; conditions: 25 μM peptide, 1 h at 37° C.
Experimental: A FITC labeled dextran with a molecular weight 3000 (FD3) was used to assess the efficacy of individual TJMP on epithelial cell monolayer permeation. The tissue insert plates were transferred to a 96-well receiver plate containing 200 μl of DPBS++ as basal media. The apical surface of each tissue culture insert was incubated with a 20 μl sample of a single test formulation (refer to Table 4 in Example 2 for details of test formulations) for one hour at 37° C. in the dark on a shaker (˜100 rpm). Following the 1 hour incubation period, underlying basal media samples were taken from each tissue culture insert and temporarily stored in the dark at room temperature until FD3 levels were quantified by fluorescence spectroscopy. For FD3 measurements, a 150 μl of basal media sample was transferred to a black, clear bottom 96-well plate. Fluorescence emission at 528/20 following excitation at 485/20 were measured using a FLx800 fluorescence plate reader from Biotek Instruments.
Permeation was calculated as: [formula] [formula] Formula terms for permeation defined: […]
(§1) Of the total 300 μl volume for each test formulation, only a 20 μl sample was applied to the human-derived tracheal/bronchial epithelial cells (EpiAirway™ Tissue model system) in order to assess the effect each test formulation had on TER, LDH and sample permeation.

[2] = Intranasal PYY pharmacokinetics in rabbits with PN159 or small molecule enhancers (Example 5); type: in vivo, New Zealand White rabbits; conditions: for PYY plasma concentration: mean of 4 rabbits; for AUCINF (Mean) / AUClast (Mean) / Cmax (Mean) / Tmax (Mean) / t½ (Mean): PYY in plasma, rabbit; for Relative AUC last / Relative Cmax: PYY, rabbit intranasal
Experimental: Twenty male New Zealand White rabbits age 3-6 months and weighing 2.1-3.0 kg were randomly assigned into one of 5 treatment groups with four animals per group. Test animals were dosed at 15 μl/kg and intranasally via pipette. Table 6 below indicates the composition of five different dose groups.
For dosing group 1 (see Table 6) a clinical formulation of PYY including small molecule permeation enhancers was used. The small molecule enhancers in these studies included methyl-β-cyclodextrin, phosphatidylcholine didecanoyl (DDPC), and/or EDTA. Dosing group 2 received PYY dissolved in phosphate buffered saline (PBS). For dosing groups 3-5, various concentrations of PN159 were added to dosing group 2, so that each of dosing groups 3 to 5 consisted of PYY, PN159, and PBS.
Serial blood samples (about 2 ml each) were collected by direct venipuncture from a marginal ear vein into blood collection tubes containing EDTA as an anticoagulant. Blood samples were collected at 0, 2.5, 5, 10, 15, 30, 45, 60, and 120 minutes post-dosing. After collection of the blood, the tubes were gently rocked several times for anti-coagulation, and then 50 μl aprotinin solution was added. The blood was centrifuged at approximately 1,600×g for 15 minutes at approximately 4° C., and plasma samples were dispensed into duplicate aliquots and stored frozen at approximately −70° C.

[3] = system: human-derived tracheal/bronchial epithelial cells (EpiAirway™ Tissue model system); experiment: Transepithelial electrical resistance (TER), EpiAirway tissue model; type: cell-based
Experimental: EpiAirway™ culture membranes were received the day before the experiments started. They are shipped in phenol red-free and hydrocortisone-free Dulbecco's Modified Eagle's Medium (DMEM). The cells are ciliated and psudostratefied, grown to confluency on Millipore Multiscreen Caco-2 96-well assay system comprised of a polycarbonate filter system. Upon receipt, the insert system will be stored unopened at 4° C. and/or cultured in 250 μl basal media per well (phenol red-free and hydrocortisone-free Dulbecco's Modified Eagle's Medium (DMEM)) at 37° C./5% CO2 for 24 hours before use.
TER measurements were taken using the REMS Autosampler (World Precision Instruments, Sarasota, Fla.) with the electrode leads. The electrodes and a tissue culture blank insert will be equilibrated for at least 20 minutes in MatTek Air-100™ medium with the power off prior to checking calibration. The background resistance of the insert system has been established by multiple measurements of a blank insert plate and the same value was used for each test on the platform. Time zero TER (TER0) was measured before incubation of the inserts with the test formulation. The top electrode will be as adjusted so that it is close to, but not making contact with, the top surface of the insert membrane. Background resistance of the blank insert should be about 5-20 ohms. For each TER determination, 100 μl of MatTek Air-100™ medium was added to the insert and 250 μl in the basal well followed by placement in the Endohm chamber. All TER values are reported as a function of the surface area of the tissue. Resistance was expressed as both Ohms*cm^2 and percent original TER value.
TER values were calculated as: [formula] [formula] Formula terms for TER calculation defined: […]
A decrease in TER value relative to the control value indicates a decrease in cell membrane resistance and an increase in mucosal epithelial cell permeability.
as §1

[4] = Group 3: PYY 205 μg/kg intranasal with 25 μM PN159
[5] = Group 4: PYY 205 μg/kg intranasal with 50 μM PN159
[6] = Group 5: PYY 205 μg/kg intranasal with 100 μM PN159
[7] = Group 3 (PN159, 25 μm) compared with Group 2 (no enhancer)
[8] = Group 4 (PN159, 50 μm) compared with Group 2 (no enhancer)
[9] = Group 5 (PN159, 100 μm) compared with Group 2 (no enhancer)

In the case of `CC(C)C[C@H](NC(=O)[C@H](C)NC(=O)[C@H](CCCCN)NC(=O)[C@H](CC(C)C)NC(=O)[C@H](C)NC(=O)[C@H](CC(C)C)NC(=O)[C@H](CCCCN)NC(=O)[C@H](CC(C)C)NC(=O)[C@H](C)NC(=O)[C@H](CC(C)C)NC(=O)[C@@H](N)CCCCN)C(=O)N[C@@H](CCCCN)C(=O)N[C@@H](C)C(=O)N[C@@H](C)C(=O)N[C@@H](CC(C)C)C(=O)N[C@@H](CCCCN)C(=O)N[C@@H](CC(C)C)C(=O)N[C@@H](C)C(N)=O` [PN159], the “% FD3 Permeation” value [1] is reported as 8%, the PYY plasma concentration ([2]; Group 3: PYY 205 μg/kg intranasal with 25 μM PN159, 0 min) is reported as 228.675 and the PYY plasma concentration ([2]; Group 3: PYY 205 μg/kg intranasal with 25 μM PN159, 2.5 min) is reported as 526.375. It also gave a PYY plasma concentration ([2]; Group 3: PYY 205 μg/kg intranasal with 25 μM PN159, 5 min) of 1430.15, a PYY plasma concentration ([2]; Group 3: PYY 205 μg/kg intranasal with 25 μM PN159, 10 min) of 6521.7 and a PYY plasma concentration ([2]; Group 3: PYY 205 μg/kg intranasal with 25 μM PN159, 15 min) of 12563.075. The PYY plasma concentration ([2]; Group 3: PYY 205 μg/kg intranasal with 25 μM PN159, 30 min) was 15222.6, the PYY plasma concentration ([2]; Group 3: PYY 205 μg/kg intranasal with 25 μM PN159, 45 min) was 9081.125 and the PYY plasma concentration ([2]; Group 3: PYY 205 μg/kg intranasal with 25 μM PN159, 60 min) was 4843.15. It also gave a PYY plasma concentration ([2]; Group 3: PYY 205 μg/kg intranasal with 25 μM PN159, 120 min) of 1224.2, a PYY plasma concentration ([2]; Group 4: PYY 205 μg/kg intranasal with 50 μM PN159, 0 min) of 424.4 and a PYY plasma concentration ([2]; Group 4: PYY 205 μg/kg intranasal with 50 μM PN159, 2.5 min) of 749.975. It also gave a PYY plasma concentration ([2]; Group 4: PYY 205 μg/kg intranasal with 50 μM PN159, 5 min) of 1293.4, a PYY plasma concentration ([2]; Group 4: PYY 205 μg/kg intranasal with 50 μM PN159, 10 min) of 12517.2 and a PYY plasma concentration ([2]; Group 4: PYY 205 μg/kg intranasal with 50 μM PN159, 15 min) of 34455.3. For the same compound, the PYY plasma concentration ([2]; Group 4: PYY 205 μg/kg intranasal with 50 μM PN159, 30 min) was 35294.375, the PYY plasma concentration ([2]; Group 4: PYY 205 μg/kg intranasal with 50 μM PN159, 45 min) was 21582.225 and the PYY plasma concentration ([2]; Group 4: PYY 205 μg/kg intranasal with 50 μM PN159, 60 min) was 9461.925. For the same compound, the PYY plasma concentration ([2]; Group 4: PYY 205 μg/kg intranasal with 50 μM PN159, 120 min) was 2337.775, the PYY plasma concentration ([2]; Group 5: PYY 205 μg/kg intranasal with 100 μM PN159, 0 min) was 294.225 and the PYY plasma concentration ([2]; Group 5: PYY 205 μg/kg intranasal with 100 μM PN159, 2.5 min) was 1748.225. For the same compound, the PYY plasma concentration ([2]; Group 5: PYY 205 μg/kg intranasal with 100 μM PN159, 5 min) was 3088.2, the PYY plasma concentration ([2]; Group 5: PYY 205 μg/kg intranasal with 100 μM PN159, 10 min) was 14486.6 and the PYY plasma concentration ([2]; Group 5: PYY 205 μg/kg intranasal with 100 μM PN159, 15 min) was 20882.725. It also gave a PYY plasma concentration ([2]; Group 5: PYY 205 μg/kg intranasal with 100 μM PN159, 30 min) of 25470.475, a PYY plasma concentration ([2]; Group 5: PYY 205 μg/kg intranasal with 100 μM PN159, 45 min) of 16499.55 and a PYY plasma concentration ([2]; Group 5: PYY 205 μg/kg intranasal with 100 μM PN159, 60 min) of 10676.625. For the same compound, the PYY plasma concentration ([2]; Group 5: PYY 205 μg/kg intranasal with 100 μM PN159, 120 min) was 1891.275, the “AUCINF (Mean)” value [2, 4] was 796354.7 pg·min/mL and the “AUClast (Mean)” value [2, 4] was 748104.1 pg·min/mL. For the same compound, the “Cmax (Mean)” value [2, 4] was 15.53395 ng/mL, the “Tmax (Mean)” value [2, 4] was 22.5 min and the “t½ (Mean)” value [2, 4] was 24.8467 min. For the same compound, the “AUCINF (Mean)” value [2, 5] was 1787348 pg·min/mL, the “AUClast (Mean)” value [2, 5] was 1692499 pg·min/mL and the “Cmax (Mean)” value [2, 5] was 40.99553 ng/mL. For the same compound, the “Tmax (Mean)” value [2, 5] was 26.25 min, the “t½ (Mean)” value [2, 5] was 25.5355 min and the “AUCINF (Mean)” value [2, 6] was 1518949 pg·min/mL. The “AUClast (Mean)” value [2, 6] was 1384241 pg·min/mL, the “Cmax (Mean)” value [2, 6] was 27.9744 ng/mL and the “Tmax (Mean)” value [2, 6] was 33.75 min. The “t½ (Mean)” value [2, 6] was 20.4628 min, the “Relative AUC last” value [2, 7] was 21× and the “Relative Cmax” value [2, 7] was 30×. For the same compound, the “Relative AUC last” value [2, 8] was 46×, the “Relative Cmax” value [2, 8] was 79× and the “Relative AUC last” value [2, 9] was 38×. For the same compound, the “Relative Cmax” value [2, 9] was 54×, the “% T0 TER” value ([3]; 25 μM peptide, pH 7, 20 μl applied) was 7% and the “TER in the presence of galantamine” value ([3]; 25, 50, 100 μM PN159 with 40 mg/ml galantamine lactate, pH 5.0) was “reduced TER”.
